Laboratory results from patent US9067937B2 (priority 2012, dated 2015).
Where a name gives a salt, the structure may show the parent alone.

Tests used:
[1] = test system: A549 cells; assay: Cell-based assay, anti-proliferative activity (Cell Counting Kit-8, 72 hours); design: species or system human; details: Homo sapiens, A549, 72 h, read-out: IC50 (μM) (A549)
Experimental: (§1) Active candidate inhibitors against MELK were evaluated for their target-specific cytotoxicity using 22Rv1, T47D, A549, DU4475 and HT-1197 cells was used for negative control. 100 micro-L of cell suspension was seeded onto 96-well microtiter plate (ViewPlate-96FTC, PerkinElmer). The initial cell concentration of 22Rv1, T47D, A549, DU4475, and HT1197 were 3,000 cells/well, 2,000 cells/well and 2,500 cells/well, respectively. Cellular growth was determined using Cell Counting Kit-8 (DOJINDO) at 72 hours after the exposure of the candidate inhibitors. […] Accurate IC50 values were calculated as described previously.

[2] = test system: DU4475 cells; assay: as above; design: species or system human; details: Homo sapiens, DU-4475, 72 h, read-out: IC50 (μM) (DU4475)
Experimental: as §1

[3] = test system: T47D cells; assay: as above; design: species or system human; details: Homo sapiens, T47D, 72 h, read-out: IC50 (μM) (T47D)
Experimental: as §1

[4] = test system: 22Rv1 cells; assay: as above; design: species or system human; details: Homo sapiens, 22Rv1, 72 h, read-out: IC50 (μM) (22Rvl)
Experimental: as §1

[5] = test system: HT1197 cells; assay: Cell-based assay, anti-proliferative activity, MELK-negative control (Cell Counting Kit-8, 72 hours); design: species or system human; details: Homo sapiens, HT1197, 72 h, read-out: IC50 (μM) (HTll97)
Experimental: as §1, with “100” for “Active candidate inhibitors against MELK were evaluated for their target-specific cytotoxicity using 22Rv1, T47D, A549, DU4475 and HT-1197 cells was used for negative control. 100”

[6] = molecular target: MELK (Homo sapiens, UniProt Q14680); assay: Kinase assay (IMAP fluorescence polarization, FITC-labeled histone H3 peptide); format: biochemical; details: 50 micro-M ATP
Experimental: MELK activity was determined in the presence or absence of compounds using fluorescein isothiocyanate-labeled (FITC-labeled) histone H3 peptide as a substrate. […] The serially diluted compounds, 0.8 ng/micro-L […] (Carna Biosciences) and 100 nM FITC-labeled histone H3 peptide were reacted in a reaction buffer (20 mM HEPES, 0.01% Tween-20, 0.3 mM MgCl2, 2 mM dithiothreitol, 50 micro-M ATP, pH 7.4) at room temperature for 1 hour. The reaction was stopped by the addition of three fold assay volume of progressive binding solution. […] IC50 values were calculated by nonlinear four parameter fit using SigmaPlot, version 10.0 (Systat Software, Inc.).

Sequence of MELK (Q14680 whole entry, looked up): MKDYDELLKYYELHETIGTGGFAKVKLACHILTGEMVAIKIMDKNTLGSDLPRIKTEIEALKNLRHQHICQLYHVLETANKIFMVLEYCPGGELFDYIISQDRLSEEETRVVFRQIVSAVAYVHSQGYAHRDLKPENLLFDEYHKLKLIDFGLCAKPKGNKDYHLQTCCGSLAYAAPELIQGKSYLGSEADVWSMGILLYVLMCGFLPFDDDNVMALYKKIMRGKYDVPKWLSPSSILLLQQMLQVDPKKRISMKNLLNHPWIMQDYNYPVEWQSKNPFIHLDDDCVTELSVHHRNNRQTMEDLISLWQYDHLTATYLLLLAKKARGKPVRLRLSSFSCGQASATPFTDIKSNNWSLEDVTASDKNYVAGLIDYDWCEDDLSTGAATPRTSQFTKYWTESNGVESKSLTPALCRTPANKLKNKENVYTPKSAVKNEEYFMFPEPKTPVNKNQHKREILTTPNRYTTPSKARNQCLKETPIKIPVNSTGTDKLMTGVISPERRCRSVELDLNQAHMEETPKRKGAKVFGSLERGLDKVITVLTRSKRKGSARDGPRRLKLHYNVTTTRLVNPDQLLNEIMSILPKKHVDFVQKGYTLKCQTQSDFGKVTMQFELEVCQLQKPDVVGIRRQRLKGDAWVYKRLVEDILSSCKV

| SMILES | IC50 [1] [µM] | IC50 [2] [µM] | IC50 [3] [µM] | IC50 [4] [µM] | IC50 [5] [µM] | IC50 [6] [µM] |
| --- | --- | --- | --- | --- | --- | --- |
| CN(C)C[C@H]1CC[C@H](Nc2c(S(C)(=O)=O)cnc3ccc(-c4cc(Cl)c(O)c(Cl)c4)nc23)CC1 [Example 12, 2,6-Dichloro-4-(8-{trans-4-[(dimethylamino)methyl]cyclohexylamino}-7-(methylsulfonyl)-1,5-naphthyridin-2-yl)phenol dihydrochloride] | 0.053 | 0.0045 | 0.019 | 0.019 | 0.46 | 0.001 |
| CN(C)C[C@H]1CC[C@H](Nc2c(S(C)(=O)=O)cnc3ccc(-c4cc(F)c(O)c(Cl)c4)nc23)CC1 [Example 13, 6-(3-Chloro-5-fluoro-4-hydroxyphenyl)-4-({trans-4-[(dimethylamino)methyl]cyclohexyl}-amino)-3-methylsulfonyl-1,5-naphthyridine dihydrochloride] | 0.073 | 0.0068 | 0.013 | 0.019 | 0.32 | 0.0014 |
| COc1cc(-c2ccc3ncc(S(C)(=O)=O)c(N[C@H]4CC[C@H](CN(C)C)CC4)c3n2)cc(Cl)c1O [Example 14, 6-(3-Chloro-4-hydroxy-5-methoxyphenyl)-4-{trans-4-[(dimethylamino)methyl]-cyclohexylamino}-3-methylsulfonyl-1,5-naphthyridine-dihydrochloride] | 0.033 | 0.0096 | 0.027 | 0.05 | 0.14 | 0.0009 |
| CN(C)[C@H]1CC[C@H](Nc2c(S(C)(=O)=O)cnc3ccc(-c4cc(Cl)c(O)c(Cl)c4)nc23)CC1 [Example 15, 2,6-Dichloro-4-{8-[trans-4-(dimethylamino)cyclohexylamino]-7-(methylsulfonyl)-1,5-naphthyridin-2-yl}phenol dihydrochloride] | 0.092 | 0.0027 | 0.018 | 0.026 | 2.2 | 0.0005 |
| CN(C)Cc1ccc(Nc2c(S(C)(=O)=O)cnc3ccc(-c4cc(Cl)c(O)c(Cl)c4)nc23)cc1 [Example 16, 2,6-Dichloro-4-(8-{4-[(dimethylamino)methyl]phenylamino}-7-(methylsulfonyl)-1,5-naphthyridin-2-yl)phenol dihydrochloride] | 0.47 | 0.031 | 0.078 | 0.17 | 4.4 | 0.0028 |
| CN(C)Cc1ccc(Nc2c(S(C)(=O)=O)cnc3ccc(-c4cc(F)c(O)c(Cl)c4)nc23)cc1 [Example 17, 2-Chloro-4-(8-{4-[(dimethylamino)methyl]phenylamino}-7-(methylsulfonyl)-1,5-naphthyridin-2-yl)-6-fluorophenol dihydrochloride] | 0.83 | 0.064 | 0.13 | 0.33 | 6.6 | 0.0081 |
| COc1cc(-c2ccc3ncc(S(C)(=O)=O)c(Nc4ccc(CN(C)C)cc4)c3n2)cc(Cl)c1O [Example 18, 2-Chloro-4-(8-{4-[(dimethylamino)methyl]phenylamino}-7-(methylsulfonyl)-1,5-naphthyridin-2-yl)-6-methoxyphenol dihydrochloride] | 0.69 | 0.31 | 0.32 | 1 | 3.8 | 0.005 |
| CC(=O)c1cnc2ccc(-c3cc(Cl)c(O)c(Cl)c3)nc2c1Nc1cccc(CCN2CCCC2)c1 [Example 19, 1-[6-(3,5-Dichloro-4-hydroxyphenyl)-4-{3-[2-(pyrrolidin-1-yl)ethyl]phenylamino}-1,5-naphthyridin-3-yl]ethanone dihydrochloride] | 0.14 | 0.11 | 0.59 | 0.63 | 7 | 0.032 |
| CC(=O)c1cnc2ccc(-c3cc(F)c(O)c(Cl)c3)nc2c1Nc1cccc(CCN2CCCC2)c1 [Example 20, 1-[6-(3-Chloro-5-fluoro-4-hydroxyphenyl)-4-{3-[2-(pyrrolidin-1-yl)ethyl]phenylamino}-1,5-naphthyridin-3-yl]ethanone dihydrochloride] | 0.31 | 0.21 | 0.5 | 0.81 | 4.8 | 0.14 |
| CC(=O)c1cnc2ccc(-c3cc(Cl)c(O)c(Cl)c3)nc2c1Nc1ccc(OCCN(C)C)nc1 [Example 21, 1-[6-(3,5-Dichloro-4-hydroxyphenyl)-4-{6-[2-(dimethylamino)ethoxy]pyridin-3-ylamino}-1,5-naphthyridin-3-yl)ethanone dihydrochloride] | 0.21 | 0.096 | 0.1 | 0.27 | 2.3 | 0.0046 |
| CC(=O)c1cnc2ccc(-c3cc(F)c(O)c(Cl)c3)nc2c1Nc1ccc(OCCN(C)C)nc1 [Example 22, 1-[6-(3-Chloro-5-fluoro-4-hydroxyphenyl)-4-{6-[2-(dimethylamino)ethoxy]pyridin-3-ylamino}-1,5-naphthyridin-3-yl)ethanone dihydrochloride] | 0.29 | 0.31 | 0.1 | 0.35 | 3.5 | 0.015 |
| COc1cc(-c2ccc3ncc(C(C)=O)c(Nc4ccc(OCCN(C)C)nc4)c3n2)cc(Cl)c1O [Example 23, 1-[6-(3-Chloro-4-hydroxy-5-methoxyphenyl)-4-{6-[2-(dimethylamino)ethoxy]pyridin-3-ylamino}-1,5-naphthyridin-3-yl]ethanone dihydrochloride] | 0.47 | 0.41 | 0.38 | 1.3 | 8.9 | 0.0089 |
| CN(C)CCOc1ccc(Nc2c(S(C)(=O)=O)cnc3ccc(-c4cc(Cl)c(O)c(Cl)c4)nc23)cn1 [Example 24, 2,6-Dichloro-4-(8-{6-[2-(dimethylamino)ethoxy]pyridin-3-ylamino}-7-(methylsulfonyl)-1,5-naphthyridin-2-yl)phenol hydrochloride] | 5.1 | 0.38 | 0.58 | 1.8 | 15 | 0.0053 |
| CN(C)CCOc1ccc(Nc2c(S(C)(=O)=O)cnc3ccc(-c4cc(F)c(O)c(Cl)c4)nc23)cn1 [Example 25, 2-Chloro-4-(8-{6-[2-(dimethylamino)ethoxy]pyridin-3-ylamino}-7-(methylsulfonyl)-1,5-naphthyridin-2-yl)-6-fluorophenol dihydrochloride] | 5.9 | 0.74 | 0.7 | 2.8 | 21 | 0.019 |
| COc1cc(-c2ccc3ncc(S(C)(=O)=O)c(Nc4ccc(OCCN(C)C)nc4)c3n2)cc(Cl)c1O [Example 26, 2-Chloro-4-(8-(6-(2-(dimethylamino)-ethoxy)pyridin-3-ylamino)-7-(methylsulfonyl)-1,5-naphthyridin-2-yl)-6-methoxyphenol dihydrochloride] | 3.1 | 1.6 | 1 | 4.1 | 15 | 0.01 |
| CC(=O)c1cnc2ccc(-c3cc(Cl)c(O)c(Cl)c3)nc2c1NCC1CCN(C)CC1 [Example 27, 1-(6-(3,5-Dichloro-4-hydroxyphenyl)-4-((1-methylpiperidin-4-yl)methylamino)-1,5-naphthyridin-3-yl)ethanone dihydrochloride] | 0.11 | 0.1 | 0.079 | 0.1 | 2 | 0.0007 |
